Reference: patent US7132420B2, “Aspartic protease inhibitors” (The United States of America as represented by the …, priority 1999, dated 2006)
Like-named read-outs stand apart in the source and are kept apart here.

What was measured:
HIV-1 protease = HIV-1 protease (Human immunodeficiency virus type 1 group M subtype B, UniProt P04585); test: HIV protease assay (Ki); assay type: biochemical
From the text: (§1) This example illustrates the HIV-1 protease inhibition activity (Ki), HIV-1 antiviral data (EC50), and the toxicity against normal cells (IC50), for particular compounds of formula (I). The HIV protease assay was done according to the protocol described in Kageyama et al, Antimicrob. Agents Chemother., 37, 272 (1993). The HIV antiviral assay was done according to the protocol described in Weislow et al., J. National Cancer Inst. 81, 577 (1989).
(§2) The HIV protease assay was done according to the protocol described in Example 35. The plasmepsin II assay was done according to the protocol used in Silva et al., Proc. Nat. Acad. Sci. USA, 93, pp. 10034–10039, September 1996 (Biochemstry). The cathepsin D assay was done according to the protocol described in Gulnik et al., FEBS Letters, 413, 379–384 (1997). The compounds illustrated in Table 2 are of the general formula (II), as described in Example 35.

cathepsin D = cathepsin D (Homo sapiens, UniProt P07339); test: cathepsin D assay (Ki); assay type: biochemical; settings: for Ki: Table 2, read-out: Cath D Ki
From the text: as §2

plasmepsin II = plasmepsin II (Plasmodium falciparum, UniProt P46925); test: biochemical; assay type: biochemical; settings: for Ki: Table 2, read-out: Pls II Ki
From the text: as §2

HIV-1 = test: HIV antiviral assay (EC50); assay type: cell-based
From the text: The HIV protease assay was done according to the protocol described in Kageyama et al, Antimicrob. Agents Chemother., 37, 272 (1993). The HIV antiviral assay was done according to the protocol described in Weislow et al., J. National Cancer Inst. 81, 577 (1989).

normal cells = test: toxicity against normal cells (IC50); assay type: cell-based
From the text: as §1

[1] = Table 1, in nM, read-out: HIV-1 Ki

Chain of plasmepsin II (P46925 125-453): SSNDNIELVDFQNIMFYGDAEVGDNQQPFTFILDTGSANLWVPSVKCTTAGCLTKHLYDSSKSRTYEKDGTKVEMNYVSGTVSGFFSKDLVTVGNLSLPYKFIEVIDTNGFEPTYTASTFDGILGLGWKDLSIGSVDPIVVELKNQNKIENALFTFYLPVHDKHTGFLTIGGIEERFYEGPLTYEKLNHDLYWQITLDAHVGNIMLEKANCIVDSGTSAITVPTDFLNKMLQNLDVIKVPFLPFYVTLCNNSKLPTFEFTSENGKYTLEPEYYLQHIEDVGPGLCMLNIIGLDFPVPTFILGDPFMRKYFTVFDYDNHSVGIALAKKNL
Chain of cathepsin D (P07339 65-412): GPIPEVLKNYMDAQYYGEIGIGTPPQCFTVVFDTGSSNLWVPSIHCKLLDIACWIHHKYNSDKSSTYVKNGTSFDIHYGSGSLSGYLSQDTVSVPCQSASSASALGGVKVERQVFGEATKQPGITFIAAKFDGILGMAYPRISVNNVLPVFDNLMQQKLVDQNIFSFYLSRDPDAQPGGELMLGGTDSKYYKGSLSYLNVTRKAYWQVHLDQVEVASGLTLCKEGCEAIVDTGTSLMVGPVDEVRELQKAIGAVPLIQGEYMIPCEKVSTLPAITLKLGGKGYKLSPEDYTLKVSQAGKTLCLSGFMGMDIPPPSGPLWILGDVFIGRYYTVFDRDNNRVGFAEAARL

Compound	Ki (HIV-1 protease)	Ki (HIV-1 protease; read-out: HIV-1 Ki, Table 2)	Ki (cathepsin D)	Ki (plasmepsin II)	Ki (HIV-1 protease; [1])	Ki (HIV-1 protease; Table 2, read-out: HIV-1 Ki)	HIV-1 EC50 (μM) (HIV-1; Table 1)	HIV-1 EC50 (μM) (HIV-1; Table 2)	inhibitory activity against HIV-1 protease, in words (HIV-1 protease)	Ki (HIV-1 protease; Table 1, read-out: HIV-1 Ki)	EC50 (HIV-1; Table 1)	EC50 (HIV-1; Table 2)	IC50 (normal cells; Table 2)	inhibitory activity against cathepsin D, in words (cathepsin D)	inhibitory activity against plasmepsin II, in words (plasmepsin II)	EC50 (HIV-1; Human immunodeficiency virus 1, Table 1)	IC50 (normal cells; Table 1)
Cc1cccc(C)c1OCC(=O)N[C@@H](Cc1ccccc1)[C@@H](O)C[C@H](CC(C)C)NC(=O)OC(C)(C)C [(15), (2S,3S,5S)-5-[N-tert-butyloxycarbonylamino]-2-[N-[2-(2,6-dimethylphenoxy)acetyl]amino]-3-hydroxy-7-methyl-1-phenyloctane]	0.009 nM	0.009 nM	6.1 nM	210 nM													
Cc1cccc(C)c1OCC(=O)N[C@@H](Cc1ccccc1)[C@@H](O)C[C@H](CC(C)C)NC(=O)[C@@H]1CCNC(=O)N1 [(29), (2S,3S,5S)-2-[N-[2-(2,6-dimethylphenoxy)acetyl]amino]-5-[N-[2S-(2-oxopyrimidinyl)-4-carbonyl]amino]-3-hydroxy-7-methyl-1-phenyloctane]			305 nM	3500 nM	16 nM	0.16 nM	in-active	notactive									
Cc1cccc(C)c1OCC(=O)N[C@@H](Cc1ccccc1)[C@@H](O)C[C@H](CC(C)C)NC(=O)NC(C)(C)C [(28), (2S,3S,5S)-5-[N-[[N′-(tert-butyl)amino]carbonyl]amino]-2-[N-[2-(2,6-dimethylphenoxy)acetyl]amino]-3-hydroxy-7-methyl-1-phenyloctane]				107 nM		0.1 nM			generally potent	0.1 nM	2000 nM	2000 nM	> 100000 nM	generally potent	generally potent		
Cc1cccc(C)c1OCC(=O)N[C@@H](Cc1ccccc1)[C@@H](O)C[C@H](CC(C)C)NC(=O)c1ccc(N)cc1 [(31), (2S,3S,5S)-5-[N-(4-aminobenzoyl)amino]-2-[N-[2-(2,6-dimethylphenoxy)acetyl]amino]-3-hydroxy-7-methyl-1-phenyloctane]	1.2 nM			30 nM					generally potent				> 100000 nM	generally potent	generally potent	2000 nM	> 100000 nM
Cc1cccc(C)c1OCC(=O)N[C@@H](Cc1ccccc1)[C@@H](O)C[C@H](CC(C)C)NC(=O)c1cccc(N)c1 [(32)]			7.4 nM	18 nM		0.33 nM			generally potent	0.331 nM	2000 nM	2000 nM	> 100000 nM	generally potent	generally potent		> 100000 nM
Cc1cccc(C)c1OCC(=O)N[C@@H](Cc1ccccc1)[C@@H](O)C[C@H](CC(C)C)NC(=O)N1CCOCC1 [(27)]			6.1 nM	76 nM	37 nM	0.37 nM					> 50000 nM	> 50000 nM					
Cc1cccc(C)c1OCC(=O)N[C@@H](Cc1ccccc1)[C@@H](O)C[C@H](Cc1ccccc1)NC(=O)[C@H](C(C)C)N1CCCNC1=O [(24), reference compound]			1960 nM	3500 nM		0.012 nM				0.013 nM	41 nM	41 nM	> 100000 nM				> 100000 nM
